Measured values from PubChem BioAssay AID652164 (Sanford-Burnham Center for Chemical Genomics, 2013).
Active and inactive are the calls of the source.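 Rule for the calls: active = IC50 at or below 20 µM; inactive = the rest.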

target: Fatty acid synthase (Homo sapiens) (UniProt P49327); assay: inhibition of human FAS-TE enzyme activity – biochemical, endpoint fluorescence intensity, powder samples, SAR follow-up (AID 652164); conditions: recombinant FAS-TE, OMFH substrate fluorescence
Sequence (P49327 whole entry, looked up): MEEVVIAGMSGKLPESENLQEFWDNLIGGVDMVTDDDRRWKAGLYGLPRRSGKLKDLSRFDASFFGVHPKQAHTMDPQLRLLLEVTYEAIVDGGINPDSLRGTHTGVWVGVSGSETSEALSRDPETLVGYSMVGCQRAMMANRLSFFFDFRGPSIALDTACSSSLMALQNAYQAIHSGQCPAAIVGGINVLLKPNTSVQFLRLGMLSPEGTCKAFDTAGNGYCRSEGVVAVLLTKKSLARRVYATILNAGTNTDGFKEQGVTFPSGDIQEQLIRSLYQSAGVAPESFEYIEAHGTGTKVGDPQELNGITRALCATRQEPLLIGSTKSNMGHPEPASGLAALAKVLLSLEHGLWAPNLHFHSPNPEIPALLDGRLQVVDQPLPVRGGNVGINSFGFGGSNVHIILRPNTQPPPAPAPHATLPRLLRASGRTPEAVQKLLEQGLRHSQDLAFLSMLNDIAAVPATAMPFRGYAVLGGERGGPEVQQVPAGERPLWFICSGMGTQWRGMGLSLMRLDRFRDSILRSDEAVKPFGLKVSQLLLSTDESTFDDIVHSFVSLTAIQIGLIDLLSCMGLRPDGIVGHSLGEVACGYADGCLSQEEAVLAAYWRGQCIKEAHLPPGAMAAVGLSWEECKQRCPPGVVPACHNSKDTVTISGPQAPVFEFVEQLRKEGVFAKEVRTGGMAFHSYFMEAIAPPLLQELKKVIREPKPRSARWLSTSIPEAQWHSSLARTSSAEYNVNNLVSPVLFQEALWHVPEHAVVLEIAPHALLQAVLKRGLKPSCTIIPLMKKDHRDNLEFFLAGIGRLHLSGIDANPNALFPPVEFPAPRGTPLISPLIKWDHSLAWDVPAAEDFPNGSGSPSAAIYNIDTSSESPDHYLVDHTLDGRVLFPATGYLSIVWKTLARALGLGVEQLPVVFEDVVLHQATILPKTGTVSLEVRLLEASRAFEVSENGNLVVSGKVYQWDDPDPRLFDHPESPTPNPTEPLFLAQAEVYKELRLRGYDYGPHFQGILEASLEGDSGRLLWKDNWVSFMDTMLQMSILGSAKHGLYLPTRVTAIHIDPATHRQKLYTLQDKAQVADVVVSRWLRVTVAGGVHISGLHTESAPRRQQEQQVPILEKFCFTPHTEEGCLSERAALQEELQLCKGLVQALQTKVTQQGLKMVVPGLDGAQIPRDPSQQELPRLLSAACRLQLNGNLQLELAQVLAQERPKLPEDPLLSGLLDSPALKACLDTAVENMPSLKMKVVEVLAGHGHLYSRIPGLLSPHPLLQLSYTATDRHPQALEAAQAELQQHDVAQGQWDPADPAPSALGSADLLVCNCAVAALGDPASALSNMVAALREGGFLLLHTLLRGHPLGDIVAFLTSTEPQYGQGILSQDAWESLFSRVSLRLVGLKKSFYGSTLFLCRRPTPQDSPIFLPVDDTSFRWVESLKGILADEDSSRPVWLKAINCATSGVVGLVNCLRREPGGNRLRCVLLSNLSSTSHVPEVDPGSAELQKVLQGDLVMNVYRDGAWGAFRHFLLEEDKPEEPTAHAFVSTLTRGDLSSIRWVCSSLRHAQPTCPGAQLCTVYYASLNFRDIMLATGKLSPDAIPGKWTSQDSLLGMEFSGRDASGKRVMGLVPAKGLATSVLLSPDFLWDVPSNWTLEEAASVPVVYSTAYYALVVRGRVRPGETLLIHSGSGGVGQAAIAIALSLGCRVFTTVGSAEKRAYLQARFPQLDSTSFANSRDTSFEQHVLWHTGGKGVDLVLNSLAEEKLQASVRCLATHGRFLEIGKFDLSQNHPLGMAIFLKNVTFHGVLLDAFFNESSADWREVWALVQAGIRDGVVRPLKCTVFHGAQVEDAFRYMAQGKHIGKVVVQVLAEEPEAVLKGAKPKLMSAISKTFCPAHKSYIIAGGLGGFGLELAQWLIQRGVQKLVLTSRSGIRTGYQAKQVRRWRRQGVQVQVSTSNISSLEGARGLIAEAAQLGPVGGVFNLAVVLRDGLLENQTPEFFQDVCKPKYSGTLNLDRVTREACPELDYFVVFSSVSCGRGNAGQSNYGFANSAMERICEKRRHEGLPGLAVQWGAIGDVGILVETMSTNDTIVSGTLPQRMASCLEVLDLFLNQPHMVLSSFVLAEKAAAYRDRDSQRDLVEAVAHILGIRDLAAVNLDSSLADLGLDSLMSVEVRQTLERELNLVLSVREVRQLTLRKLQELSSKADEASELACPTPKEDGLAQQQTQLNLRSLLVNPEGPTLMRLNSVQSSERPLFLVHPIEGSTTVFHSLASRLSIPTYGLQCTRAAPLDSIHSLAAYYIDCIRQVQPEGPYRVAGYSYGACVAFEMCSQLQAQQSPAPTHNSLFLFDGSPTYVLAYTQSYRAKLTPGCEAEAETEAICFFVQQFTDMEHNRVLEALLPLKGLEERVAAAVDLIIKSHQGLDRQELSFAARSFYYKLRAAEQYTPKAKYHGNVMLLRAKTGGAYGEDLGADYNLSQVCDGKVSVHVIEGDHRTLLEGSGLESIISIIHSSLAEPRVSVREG

SMILES	IC50
CC(C)(C)OC(=O)Nc1nc(-c2ccc(S(=O)(=O)N3CCOCC3)cc2)cs1	inactive
CC(C)C(=O)Nc1nc(-c2ccc(S(=O)(=O)N(C)C)cc2)cs1	575 nM
CCCCC(=O)Nc1nc(-c2ccc(S(=O)(=O)N3CCSCC3)cc2)cs1	713 nM
CCC(=O)Nc1nc(-c2ccc(S(=O)(=O)N3CCCC3)cc2)cs1	648 nM
CCC(C)C(=O)Nc1nc(-c2ccc(S(=O)(=O)N(CC)CC)cc2)cs1 (centres undefined)	300 nM
O=C(Nc1nc(-c2ccc(S(=O)(=O)N3CCOCC3)cc2)cs1)C1CCC1	3590 nM
CCN(CC)S(=O)(=O)c1ccc(-c2csc(NC(=O)C3CCCCC3)n2)cc1	2930 nM
CCC(=O)Nc1nc(-c2ccc(S(=O)(=O)N3CCOCC3)cc2)cs1	4520 nM
CCN(CC)S(=O)(=O)c1ccc(-c2csc(NC(=O)C3CC3)n2)cc1	2320 nM
CCCCC(=O)Nc1nc(-c2ccc(S(=O)(=O)N(CC)CC)cc2)cs1	172 nM
CC(C)CC(=O)Nc1nc(-c2ccc(S(=O)(=O)N3CCOCC3)cc2)cs1	11600 nM
CCC(C)C(=O)Nc1nc(-c2ccc(S(=O)(=O)N3CCOCC3)cc2)cs1 (centres undefined)	311 nM
CC(C)C(=O)Nc1nc(-c2ccc(S(=O)(=O)N3CCCC3)cc2)cs1	277 nM
CCCCC(=O)Nc1nc(-c2ccc(S(=O)(=O)N3CCCC3)cc2)cs1	201 nM
CC1CCN(S(=O)(=O)c2ccc(-c3csc(NC(=O)C(C)C)n3)cc2)CC1	658 nM
O=C(Nc1nc(-c2ccc(S(=O)(=O)N3CCCC3)cc2)cs1)C1CC1	558 nM
O=C(Nc1nc(-c2ccc(S(=O)(=O)N3CCCC3)cc2)cs1)C1CCC1	398 nM
CCN(CC)S(=O)(=O)c1ccc(-c2csc(NC(=O)C(C)C)n2)cc1	281 nM
CCC(CC)C(=O)Nc1nc(-c2ccc(S(=O)(=O)N3CCOCC3)cc2)cs1	334 nM
O=C(Nc1nc(-c2ccc(S(=O)(=O)N3CCOCC3)cc2)cs1)C1CC1	5210 nM
O=C(Nc1nc(-c2ccc(S(=O)(=O)N3CCCC3)cc2)cs1)C1CCCC1	729 nM
CCC(=O)Nc1nc(-c2ccc(S(=O)(=O)N(CC)CC)cc2)cs1	4250 nM
CCCCC(=O)Nc1nc(-c2ccc(S(=O)(=O)N3CCOCC3)cc2)cs1	552 nM
CCCCC(=O)Nc1nc(-c2ccc(S(=O)(=O)N3CCC(C)CC3)cc2)cs1	501 nM
